Paper PMC9227536, “Prediction of Pharmacokinetics of IDP-73152 in Humans Using Physiologically-Based Pharmacokinetics” (Pharmaceutics, 2022)
Where two headings read alike, the source gives them in different places.

Columns and labels:
[1] = PK study in dogs (intravenous and oral); assay type: in vivo
Protocol: The in vivo experimental protocol was approved by the Institutional Animal Care and Use Committee of Research Laboratory at Ildong pharmaceutical Co., Ltd. (Ref. No.: IDL-PDF-001 and 09005-11004). Animals were acclimatized to the laboratory conditions for at least 1 week before the experiments and were kept in the standardized conditions (20–25 °C, 55 ± 5% humidity, and a 12 h light/dark cycle). The animals fasted overnight prior to drug administration, and food was resupplied 4 h post-dose.
Male beagle dogs (body weight 9.55–10.3 kg, Beijing Marshall Biotechnology, Beijing, China) received a single intravenous dose of 10 mg/kg IDP-73152 via the cephalic vein (i.e., the injection volume of 1 mL/kg, IDP-73152 in saline). When necessary, a single dose of IDP-73152 at 20 mg/kg was also orally administered to dogs in the form of hard gelatin capsules. Blood samples were collected from the jugular vein at 0.167, 0.33, 0.5, 1, 2, 4, and 8 h (for intravenous administration study), and 0.167, 0.33, 0.5, 1, 2, 4, 6, and 8 h (for oral administration study) after the administration. Plasma was separated/collected from the blood sample by centrifugation for 5 min at 10,000× g/4 °C and stored at −80 °C until the analysis.
When necessary for a model independent PK analysis, a standard moment analysis was carried out with WinNonlin software using either representative (for the study with mice) or individual (for the study with rats, dogs, and humans) concentration–time profile(s). For the calculation of PBPK models, Berkeley Madonna 8.3.18 (Albany, CA, USA) was used with the fourth-order Runge–Kutta method for numerical integration.

[2] = Blood partitioning (LC-MS/MS-based depletion method), mouse; assay type: in vitro ADME; conditions: whole blood, mice blood, 0.3, 1, 3 μM, read-out: BP (blood-to-plasma concentration ratio)
Protocol: In this study, the partitioning of IDP-73152 in blood samples obtained from mice, rats, dogs, and humans was determined using the LC-MS/MS-based depletion method with slight modifications. DP-73152 was added to an aliquot (1 mL) of blank blood or plasma at a final concentration of 0.3, 1, or 3 μM. The mixture was incubated at 37 °C in a water bath for 60 min. After the incubation, the plasma was separated by centrifugation of the blood samples for 5 min at 10,000× g/4 °C and stored at -80 °C until analysis. The blood-to-plasma concentration ratio (BP) was calculated using the equation:(3) BP=[…], where […] is the concentration of the compound at the corresponding blood concentration in the plasma, and CPL is the concentration from the plasma sample separated from the incubated blood.

[3] = PBPK model prediction, rats
Excerpt: In this study, the PBPK model involving ten tissues (i.e., adipose tissue, brain, heart, kidney, liver, lung, muscle, skin, spleen, and testis (Figure 2; see Appendix A for detailed mathematical descriptions)) was considered to be applicable for the description of IDP-73152 PK in rats, mice, dogs, and humans. Physiological variables were obtained from the literature; they are summarized in Supplementary Table S1.
In addition, from metabolic stability studies, it was evident that IDP-73152 was metabolically unstable in the incubations containing liver microsomes (from all species)/hepatocytes (from rats) and in the rat plasma. […] Accordingly, during model development, we initially assumed that IDP-73152 was entirely eliminated by the metabolism in the liver (namely, CLh) and in the blood (namely, CLblood) in rats: For other species (i.e., mice, dogs, and humans), the elimination was assumed to be primarily mediated by metabolism in the liver. From the results of in vitro metabolic stability studies, the hepatic clearance (CLh) in rats was estimated under the assumption that the well-stirred liver model was adequate for IDP-73152 [29]:(9) CLh=QLI×BP×fu,p×CLu,int,H/QLI×BP+fu,p×CLu,int,H, where QLI, and fu,p represent the liver blood flow and the unbound fraction of IDP-73152 in the plasma, respectively.
For the estimation of the volume of the distribution of IDP-73512 in rats, the steady-state volume of distribution (Vss) was calculated using the following equation [30]:(10) Vss=VP+Vrbc×EP+∑VT,i×KP,ss,i, where Vp, Vrbc, and VT,i are the volumes of plasma, red blood cells, and tissues, respectively. The erythrocyte-to-plasma partition coefficient (EP), is calculated by EP=1+(BP−1)/Hematocrit . The KP,ss for each tissue obtained from Equation (8) was applied for Equation (10). For the case of non-eliminating organs, the KP,ss was regarded as the tissue-to-plasma partition coefficient (KP) in PBPK equations (Appendix A). For the case of the liver—i.e., the eliminating organ—the KP,ss (KP,ss,LI) had to be corrected to account for the equilibrium being altered by the elimination. Thus, a PBPK-operative KP for liver (KP,LI) was calculated using the following equation [31]:(11) KP,LI=KP,ss,LI/(1−ER), where ER is the hepatic extraction ratio of the compound (i.e., CLh/(QLI·BP)). In this study, a compartmental absorption and transit (CAT) model consisting of stomach and five intestinal segments was considered for the description of the intestinal absorption kinetics of IDP-73152 in animals and humans. We assumed that the initial compartment denoted the stomach (Equation (12)), and the subsequent three compartments represented the small intestine and two additional compartments for the large intestine (i.e., a total of six compartments, with absorption occurring in the five intestinal compartments) (Equation (13)). […]
For the intestine, viz. i = 1~5:(13) dMi/dt=Kt,i−1×Mi−1−(Kt,i+ka,i)×Mi, where Ms is the amount of drug in the stomach; Mi is the amount of drug in the i-th intestinal segment; Ks, Kt,i, and ka,i are the rate constants of gastric emptying, intestinal transit, and the segmental absorption rate, respectively. […] The absorption rate constant in the intestinal segments in humans, ka,i,human, was assumed to be identical along the segments and calculated as follows: first, Peff was empirically estimated from the Caco-2 cell permeability (Papp):(14) LogPeff=0.4926×LogPapp−0.1454 […]

[4] = male, beagle, dog, plasma, dogs, oral 20 mg/kg, hard gelatin capsules

**Q.** Which CLp ([1]; dogs, intravenous 10 mg/kg, 10 mg/kg) does the source give for `CC(C)(C)[C@H](NC(=O)[C@H](CC1CCCC1)CN(O)C=O)C(=O)N1CCC(NCc2cc(F)c(F)cc2F)CC1` [IDP-73152] here?
**A.** Its CLp is 0.664 ± 0.259 L/h/kg.

**Q.** What about the AUC(0-inf) ([1]; male, beagle, dog, plasma, iv, 10 mg/kg) of the same compound?
**A.** The AUC(0-inf) was 16.6 ± 5.9 µg·h/mL.

**Q.** And the clearance ([1]; male, beagle, dog, plasma, iv, 10 mg/kg, dogs, intravenous 10 mg/kg, read-out: CLp (converted))?
**A.** Its clearance is 0.618 L/h/kg.

**Q.** And the Vd ([1]; male, beagle, dog, plasma, dogs, intravenous 10 mg/kg, moment analysis, read-out: Vss)?
**A.** The Vd was 1.15 ± 0.46 L/kg.

**Q.** And the half-life ([1]; male, beagle, dog, plasma, dogs, intravenous 10 mg/kg, read-out: t1/2 (converted))?
**A.** The half-life was 1.18 ± 0.14 h.

**Q.** And the bioavailability ([1]; male, beagle, dog, plasma, dogs, oral 20 mg/kg vs intravenous 10 mg/kg, read-out: F (bioavailability))?
**A.** The bioavailability was 95.5%.

**Q.** And the AUC(0-inf) [1, 4]?
**A.** Its AUC(0-inf) is 31.6 ± 5.9 µg·h/mL.

**Q.** What about the Cmax [1, 4] of the same compound?
**A.** The Cmax was 10.5 ± 2 µg/mL.

**Q.** And the Tmax [1, 4]?
**A.** Its Tmax is 0.777 ± 0.387 h.

**Q.** What about the half-life ([1]; male, beagle, dog, plasma, dogs, oral 20 mg/kg, hard gelatin capsules, read-out: t1/2 (terminal phase half-life) (converted)) of the same compound?
**A.** The half-life was 1.81 ± 0.04 h.

**Q.** What about the blood plasma ratio at 60 min [2] of the same compound?
**A.** The blood plasma ratio at 60 min was 1.31 ± 0.13.

**Q.** And the “AUC ratio (Predicted AUCinf/Observed AUCinf)” value ([3]; intravenous 2.5 mg/kg)?
**A.** Its value is 1.09.

**Q.** And the “AUC ratio (Predicted AUCinf/Observed AUCinf)” value ([3]; intravenous 10 mg/kg)?
**A.** The value was 1.14.

**Q.** And the “Cmax ratio without the scaling (SF)” value ([3]; oral)?
**A.** Its value is 2.36.

**Q.** And the “AUC ratio (Predicted AUCinf/Observed AUCinf)” value ([3]; oral 20 mg/kg)?
**A.** Its value is 1.03.

**Q.** And the “Cmax ratio (Predicted Cmax/Observed Cmax)” value ([3]; oral 20 mg/kg)?
**A.** Its value is 1.02.
